“And” between values parts separate entries of the source, which are not always exact repeats. Identical values can stand only once.
Assays:
[1] = tested on: α-amylase; test: Liquid analytical test system for the detection of α-amylase (DMA-G7, α-glucosidase, β-glucosidase); assay type: biochemical; settings: average of three consecutive readings between 3 and 6 minutes
Protocol: A liquid α-amylase detection reagent was prepared by combining 1.8 mM DMA-G7 prepared according to Example 2, 38 units of α-glucosidase and 20 units of β-glucosidase in 1.0 mL of buffered solution comprising 50 mM PIPES, 50 mM NaCl, and 5.0 mM calcium chloride (pH 7.0). Amylase control serum (0.025 mL) containing 37 IU/L, 175 IU/L, and 313 IU/L, respectively, of α-amylase were added to the detection reagent, independently, and incubated at 37° C. The enzymatic action of α-amylase on the substrate compound in each of the mixtures liberated the shorter chain chromogenic maltooligosaccharide compounds thereof (e.g., DMA-G2 to DMA-G4) which, in turn, were enzymatically acted upon by the α-glucosidase and β-glucosidaseto liberate the optically active form or anion of the 7-hydroxy-9,9-dimethyl- 9H-acridin-2-one chromogen. The rate of color change produced by the liberated chromogen in each of the mixtures was measured at 634 nm on a Cary 219 spectrophotometer (Varian Associates, Inc., Sonnyvale, Calif., USA) from between 1 and 9 minutes after each of the serum samples were added to the detection reagent (Table 2/FIG. 4).

[2] = tested on: α-amylase; test: Analytical test device for the detection of α-amylase (filter paper impregnated with DMA-G7 reagent); assay type: biochemical; settings: between 180 and 200 seconds, three aliquots
Protocol: A sheet of Whatman 54 filter paper (Whatman, Inc., Clifton, N.J., USA) was immersed into a solution comprising the liquid α-amylase detection reagent prepared according to Example 3, 0.1% Triton X-100 (Sigma Chemical Co., St. Louis, Mo., USA) and 0.5% carboxycellulose, and dried.
Analytical test devices were prepared by mounting 0.5 cm wide ×1.0 cm long segment of the aforementioned impregnated filter paper onto and along the edge of one surface of 0.5 cm×8.125 cm polystyrene supports (Tricite®, Dow Chemical Co., Midland, Mich., USA) previously laminated with a 2 mm strip of Double Stick® double-faced adhesive tape (3M Company, St. Paul, Minn., USA).
Three 30 μL aliquots of undiluted serum containing 39 IU/L, 78 IU/L, 117 IU/L, 157 IU/L, 235 IU/L, and 313 IU/L, respectively, of α-amylase were applied, independently, to a test device and the rate of color change produced by the liberated chromogen on each device was measured at 630 nm on a Seralyzer® reflectance photometer (Miles Inc., Elkhart, Ind., USA) from between 0 seconds and 240 seconds after the serum sample was added to each test device.

[3] = tested on: β-D-glucosidase; test: Hydrolysis of the glucoside substrate by β-D-glucosidase (Kcat, Km); assay type: biochemical; settings: 50 mM phosphate buffered solution (pH 7.4) containing 5.0 mM MgCl2
[4] = Solubility in phosphate buffered solution; assay type: physicochemical; settings: phosphate buffered solution (pH 7.4)
Text: The resulting glucoside has an absorbance (λmax) of 438 nm (yellow), an extinction coefficient of 27,400, and is soluble in a phosphate buffered solution (pH 7.4). […] Accordingly, such compound provides a very advantageous substrate for a secondary enzyme, such as β-D-glucosidase, in an assay system for α-amylase.

SMILES | α-amylase reactivity, rate of color change at 634 nm ([1]; 37 IU/L α-amylase) | α-amylase reactivity, rate of color change at 634 nm ([1]; 175 IU/L α-amylase) | α-amylase reactivity, rate of color change at 634 nm ([1]; 313 IU/L α-amylase) | Reactivity (linear regression of L(R), reflectance at 630 nm) ([2]; 39 IU/L α-amylase in undiluted serum) | Reactivity (linear regression of L(R), reflectance at 630 nm) ([2]; 78 IU/L α-amylase in undiluted serum) | Reactivity (linear regression of L(R), reflectance at 630 nm) ([2]; 117 IU/L α-amylase in undiluted serum) | Reactivity (linear regression of L(R), reflectance at 630 nm) ([2]; 157 IU/L α-amylase in undiluted serum) | Reactivity (linear regression of L(R), reflectance at 630 nm) ([2]; 235 IU/L α-amylase in undiluted serum) | Reactivity (linear regression of L(R), reflectance at 630 nm) ([2]; 313 IU/L α-amylase in undiluted serum) | rate at which the enzyme cleaves the substrate (Kcat) [3] | Km ([3]; read-out: binding constant (Km)) | solubility [4]
CC1(C)C2=CC(=O)C=CC2=Nc2ccc(O[C@@H]3O[C@H](CO)[C@@H](O[C@H]4O[C@H](CO)[C@@H](O[C@H]5O[C@H](CO)[C@@H](O[C@H]6O[C@H](CO)[C@@H](O[C@H]7O[C@H](CO)[C@@H](O[C@H]8O[C@H](CO)[C@@H](O[C@H]9O[C@H](CO)[C@@H](O)[C@H](O)[C@H]9O)[C@H](O)[C@H]8O)[C@H](O)[C@H]7O)[C@H](O)[C@H]6O)[C@H](O)[C@H]5O)[C@H](O)[C@H]4O)[C@H](O)[C@H]3O)cc21 [DMA-G7, 7-β-maltoheptaosyloxy-9,9-dimethyl-acridin-2-one] | 0.011 Absorbance/Minute | 0.062 Absorbance/Minute | 0.109 Absorbance/Minute | 0.384 × 10^-2 and 0.373 × 10^-2 and 0.359 × 10^-2 | 0.957 × 10^-2 and 0.941 × 10^-2 and 0.954 × 10^-2 | 1.450 × 10^-2 and 1.510 × 10^-2 and 1.430 × 10^-2 | 1.781 × 10^-2 and 1.999 × 10^-2 and 1.886 × 10^-2 | 2.560 × 10^-2 and 2.596 × 10^-2 and 2.610 × 10^-2 | 2.961 × 10^-2 and 2.989 × 10^-2 and 2.916 × 10^-2 | – | – | –
CC1(C)C2=CC(=O)C=CC2=Nc2ccc(O[C@@H]3O[C@H](CO)[C@@H](O)[C@H](O)[C@H]3O)cc21 [DMA-G1, 7-β-D-glucopyranosyloxy-9,9-dimethyl-9H-acridin-2-one] | – | – | – | – | – | – | – | – | – | 1.32×10^4 mol min.^-1 /mol. active site | 170 µM | soluble
CC1(C)C2=CC(=O)C=CC2=Nc2ccc(O)cc21 [liberated chromogen anion, 7-hydroxy-9,9-dimethyl-9H-acridin-2-one] | – | – | – | – | – | – | – | – | – | – | – | soluble

— US4932871A, “Rapid method for preparing chromogenic alpha-amylase substrate compounds at high preparative yields” (Miles Inc., priority 1987, dated 1990)
